Source: the supplement of paper PMC13380429

Legend:
Conditions in all cases: 72 h
[1] = system: Calu-3; assay: drug sensitivity score (DSS) for viability; higher = more toxic; extreme values may be limits of the assay
[2] = system: Caco-2; assay: as above
[3] = system: Vero E6; assay: as above
[4] = system: HepG2; assay: as above
[5] = system: U2OS; assay: as above
[6] = system: Calu-3; assay: relative viability EC50 (midpoint between 100% and the lowest measured viability); higher = less toxic
[7] = system: Caco-2; assay: as above
[8] = system: Vero E6; assay: as above
[9] = system: HepG2; assay: as above
[10] = system: U2OS; assay: as above
[11] = system: Calu-3; assay: cell viability relative to DMSO; higher = less toxic
[12] = system: Caco-2; assay: as above
[13] = system: Vero E6; assay: as above
[14] = system: HepG2; assay: as above
[15] = system: U2OS; assay: as above

Compound | drug sensitivity score [1] | drug sensitivity score [2] | drug sensitivity score [3] | drug sensitivity score [4] | drug sensitivity score [5] | relative viability EC50 [6] | relative viability EC50 [7] | relative viability EC50 [8] | relative viability EC50 [9] | relative viability EC50 [10] | cell viability ([11]; 1 nM) | cell viability ([11]; 10 nM) | cell viability ([11]; 100 nM) | cell viability ([11]; 1000 nM) | cell viability ([11]; 10000 nM) | cell viability ([12]; 1 nM) | cell viability ([12]; 10 nM) | cell viability ([12]; 100 nM) | cell viability ([12]; 1000 nM) | cell viability ([12]; 10000 nM) | cell viability ([13]; 1 nM) | cell viability ([13]; 10 nM) | cell viability ([13]; 100 nM) | cell viability ([13]; 1000 nM) | cell viability ([13]; 10000 nM) | cell viability ([14]; 1 nM) | cell viability ([14]; 10 nM) | cell viability ([14]; 100 nM) | cell viability ([14]; 1000 nM) | cell viability ([14]; 10000 nM) | cell viability ([15]; 1 nM) | cell viability ([15]; 10 nM) | cell viability ([15]; 100 nM) | cell viability ([15]; 1000 nM) | cell viability ([15]; 10000 nM)
CCCCCCc1ccc(O)cc1O [hexylresorcinol] | 0 | 0 | 0 | 0 | 0 | > 10 µM | > 10 µM | > 10 µM | > 10 µM | > 10 µM | 91% | 109% | 104% | 97.8% | 99.7% | 95.9% | 98.5% | 98.4% | 100% | 94.9% | 102% | 101% | 106% | 103% | 96.7% | 105% | 98.7% | 107% | 93.7% | 94% | 98.3% | 101% | 97.5% | 104% | 99.9%
Oc1cc(O)cc(O)c1 [phloroglucin] | 0 | 0 | 0 | 0 | 0 | > 10 µM | > 10 µM | > 10 µM | > 10 µM | > 10 µM | 104% | 105% | 113% | 90.1% | 98.8% | 113% | 91.5% | 104% | 91.6% | 104% | 101% | 102% | 98.6% | 103% | 101% | 103% | 104% | 91.8% | 99% | 104% | 101% | 98.3% | 98.7% | 98.2% | 98.7%
CC(C)=CCC[C@](C)(O)[C@@H]1CC=C(C)CC1 [levomenol] | 0 | 0 | 0 | 0 | 0 | > 10 µM | > 10 µM | > 10 µM | > 10 µM | > 10 µM | 97.9% | 98.2% | 97.2% | 94.3% | 100% | 101% | 103% | 82.6% | 110% | 95.1% | 94.6% | 96.5% | 99% | 98.8% | 108% | 99.8% | 100% | 116% | 98.1% | 106% | 96.2% | 100% | 96.4% | 104% | 103%
